The NIST ThermoML archive (doi:10.1021/je400894j)

Assay: mn = molality of the nth substance listed, in mol/kg
Details: 101 kPa, Liquid, Falling or rolling sphere viscometry

O=C([O-])CC(O)(CC(=O)[O-])C(=O)[O-].[Na+].[Na+].[Na+] [trisodium citrate] + O
viscosity [mPa·s]
Details | 288.15 K | 298.15 K | 308.15 K | 318.15 K
m1 = 0.2 | 1.343 | 1.056 | 0.858 | 0.719
m1 = 0.4 | 1.661 | 1.296 | 1.047 | 0.868
m1 = 0.6 | 2.072 | 1.592 | 1.277 | 1.049
m1 = 0.8 | 2.633 | 2.002 | 1.581 | 1.287
